From patent US10005771B2, “Bicyclic derivatives having β2 adrenergic agonist and M3 muscarinic antagonist activities” (Almirall, S.A., priority 2014, dated 2018)

Legend:
[1] = target: T1, human muscarinic M3 receptors (Homo sapiens, UniProt P20309); experiment: Human muscarinic M3 receptors binding assay ([3H]-NMS, CHO-K1 membranes); conditions: membranes from CHO-K1 cells, [3H]-NMS radioligand, two hours incubation
T1 construct: purchased Perkin Elmer; host or cells: CHO-K1 cells
Description: Test 2: Human Muscarinic M3 Receptors Binding Assays
The study of binding to human muscarinic M3 receptors was performed using commercial membranes (Perkin Elmer) prepared from CHO-K1 cells.
Radioligand binding experiments were conducted in 96 polypropylene well plates in a total volume of 200 μl. All reagents were dissolved in assay binding buffer (PBS with calcium and magnesium, SIGMA), except compounds that were dissolved in DMSO 100%. Non-specific binding (NSB) was measured in the presence of 1 μM atropine. [3H]-NM, used as the radioligand was incubated with membranes that express human muscarinic M3 at concentration of 4.9 μg/well.
After an incubation period of two hours with gentle shaking, 150 μl of the reaction mix were transferred to 96 GF/C filter plates (Millipore), previously treated with wash buffer (Tris 50 mM; NaCl 100 mM; pH: 7.4), containing 0.05% PEI (Sigma) during one hour. Bound and free [3H]-NMS were separated by rapid vacuum filtration in a manifold from Millipore and washed four times with ice cold wash buffer. After drying 30 min, 30 μl of OPTIPHASE Supermix were added to each well and radioactivity quantified using a Microbeta microplate scintillation counter.
The affinity of each test compound to the receptor was determined by using ten different concentrations ran in duplicate. IC50s were calculated using Activity Base software from IDBS and the four parameters-log equation.

[2] = target: T2, human adrenergic β2 receptor (Homo sapiens, UniProt P07550); experiment: Human adrenergic β2 receptor binding assay (3H-CGP12177, Sf9 membranes); conditions: membranes from Sf9 cells, 0.6 nM 3H-CGP12177, 60 minutes at room temperature
T2 construct: purchased Perkin Elmer; host or cells: Sf9 cells
Description: Test 1: Human Adrenergic β1 and β2 Receptor Binding Assays
The study of binding to human adrenergic beta1 and beta2 receptors was performed using commercial membranes prepared from Sf9 cells where they are overexpressed (Perkin Elmer). The membrane suspensions (16 μg/well for beta1 and 5 μg/well for beta2) in assay buffer (75 mM Tris/HCl with 12.5 mM MgCl2 and 2 mM EDTA pH=7.4) were incubated with 0.14 or 0.6 nM of 3H-CGP12177 (Amersham) for beta 1 and beta 2 receptors respectively in a final volume of 250 μl, in GFC Multiscreen 96 well plates (Millipore) previously treated with assay buffer containing 0.3% PEI (Sigma). Non specific binding was measured in the presence of 1 μM propanolol. Incubation was maintained for 60 minutes at room temperature and with gentle shaking. The binding reactions were terminated by filtration and washing with 2.5 volumes of Tris/HCl 50 mM pH=7.4. The affinity of each test compound to the receptor was determined by using ten different concentrations ran in duplicate. IC50s were calculated using Activity Base software from IDBS and the four parameters-log equation.

T1 sequence (P20309 whole entry): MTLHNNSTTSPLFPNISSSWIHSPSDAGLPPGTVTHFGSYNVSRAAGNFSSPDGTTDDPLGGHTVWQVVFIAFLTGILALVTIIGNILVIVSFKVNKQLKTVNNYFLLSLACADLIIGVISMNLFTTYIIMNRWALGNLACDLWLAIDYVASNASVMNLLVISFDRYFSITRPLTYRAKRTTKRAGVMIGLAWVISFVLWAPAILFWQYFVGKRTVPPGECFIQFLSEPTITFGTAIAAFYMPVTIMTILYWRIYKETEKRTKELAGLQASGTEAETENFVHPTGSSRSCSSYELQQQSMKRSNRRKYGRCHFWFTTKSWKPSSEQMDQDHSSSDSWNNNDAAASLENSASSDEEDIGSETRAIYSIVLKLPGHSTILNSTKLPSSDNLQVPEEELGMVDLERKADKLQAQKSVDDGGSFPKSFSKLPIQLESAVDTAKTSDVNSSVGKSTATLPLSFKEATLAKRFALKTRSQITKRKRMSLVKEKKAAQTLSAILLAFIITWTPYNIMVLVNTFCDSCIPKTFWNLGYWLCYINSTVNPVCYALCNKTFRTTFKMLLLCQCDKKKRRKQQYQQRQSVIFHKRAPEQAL

Row | Compound | IC50 [1] | IC50 [2]
1 | COc1cc(OCC(=O)N(C)CCCc2cccc(C3(C(=O)O[C@H]4CN5CCC4CC5)CCCCC3)c2)c(Cl)cc1CNC[C@H](O)c1ccc(O)c2[nH]c(=O)ccc12 [Example 4, (3R)-1-azabicyclo[2.2.2]oct-3-yl 1-(3-{3-[{[2-chloro-4-({[(2R)-2-hydroxy-2-(8-hydroxy-2-oxo-1,2-dihydroquinolin-5-yl)ethyl]amino}methyl)-5-methoxyphenoxy]acetyl}(methyl)amino]propyl}phenyl)cyclohexanecarboxylate] | 0.74 nM | 6.6 nM
2 | COc1cc(OCC(=O)NCCCCc2cccc(C3(C(=O)O[C@H]4CN5CCC4CC5)CCCCC3)c2)c(Cl)cc1CNCC(O)c1ccc(O)c2[nH]c(=O)ccc12 (stereo partly drawn) [Example 24, (3R)-1-azabicyclo[2.2.2]oct-3-yl 1-{3-[4-({[2-chloro-4-({[2-hydroxy-2-(8-hydroxy-2-oxo-1,2-dihydroquinolin-5-yl)ethyl]amino}methyl)-5-methoxyphenoxy]acetyl}amino)butyl]phenyl}cyclohexanecarboxylate] | 0.33 nM | 1.9 nM
3 | O=C(O[C@H]1CN2CCC1CC2)C1(c2cccc(CCCCn3nnc4cc(CNC[C@H](O)c5ccc(O)c6[nH]c(=O)ccc56)ccc43)c2)CCCCC1 [Example 5, (3R)-1-azabicyclo[2.2.2]oct-3-yl 1-(3-{4-[5-({[(2R)-2-hydroxy-2-(8-hydroxy-2-oxo-1,2-dihydroquinolin-5-yl)ethyl]amino}methyl)-1H-1,2,3-benzotriazol-1-yl]butyl}phenyl)cyclohexanecarboxylate] | 1.1 nM | 28 nM
4 | COc1cc(NC(=O)CCCc2cccc(C3(C(=O)OCC4CCN(C)CC4)CCCCC3)c2)c(Cl)cc1CNC[C@H](O)c1ccc(O)c2[nH]c(=O)ccc12 [Example 29, (1-methylpiperidin-4-yl)methyl 1-[3-(4-{[2-chloro-4-({[(2R)-2-hydroxy-2-(8-hydroxy-2-oxo-1,2-dihydroquinolin-5-yl)ethyl]amino}methyl)-5-methoxyphenyl]amino}-4-oxobutyl)phenyl]cyclohexanecarboxylate] | 0.57 nM | 2.2 nM
5 | O=C(O[C@H]1CN2CCC1CC2)C1(c2cccc(CCCCn3c(=O)oc4cc(CNC[C@H](O)c5ccc(O)c6[nH]c(=O)ccc56)ccc43)c2)CCCCC1 [Example 1, (3R)-1-azabicyclo[2.2.2]oct-3-yl 1-(3-{4-[6-({[(2R)-2-hydroxy-2-(8-hydroxy-2-oxo-1,2-dihydroquinolin-5-yl)ethyl]amino}methyl)-2-oxo-1,3-benzoxazol-3(2H)-yl]butyl}phenyl)cyclohexanecarboxylate] | 1.6 nM | 4.3 nM
6 | O=C(CCCc1cccc(C2(C(=O)O[C@H]3CN4CCC3CC4)CCCCC2)c1)N[C@H]1CC[C@H](CNC[C@H](O)c2ccc(O)c3[nH]c(=O)ccc23)CC1 [Example 3, (3R)-1-azabicyclo[2.2.2]oct-3-yl 1-[3-(4-{[trans-4-({[(2R)-2-hydroxy-2-(8-hydroxy-2-oxo-1,2-dihydroquinolin-5-yl)ethyl]amino}methyl)cyclohexyl]amino}-4-oxobutyl)phenyl]cyclohexanecarboxylate] | 1.7 nM | 4.2 nM
7 | O=C(CCCc1cccc(C2(C(=O)O[C@H]3CN4CCC3CC4)CCCCC2)c1)Nc1ccc(CNC[C@H](O)c2ccc(O)c3[nH]c(=O)ccc23)nc1 [Example 11, (3R)-1-azabicyclo[2.2.2]oct-3-yl 1-[3-(4-{[6-({[(2R)-2-hydroxy-2-(8-hydroxy-2-oxo-1,2-dihydroquinolin-5-yl)ethyl]amino}methyl)pyridin-3-yl]amino}-4-oxobutyl)phenyl]cyclohexanecarboxylate] | 0.49 nM | 23 nM
8 | COc1cc(C(=O)OCCCCc2cccc(C3(C(=O)O[C@H]4CN5CCC4CC5)CCCCC3)c2)c(Cl)cc1CNC[C@H](O)c1ccc(O)c2[nH]c(=O)ccc12 [Example 22, 4-[3-(1-{[(3R)-1-azabicyclo[2.2.2]oct-3-yloxy]carbonyl}cyclohexyl)phenyl]butyl 2-chloro-4-({[(2R)-2-hydroxy-2-(8-hydroxy-2-oxo-1,2-dihydroquinolin-5-yl)ethyl]amino}methyl)-5-methoxybenzoate] | 0.29 nM | 7.8 nM
9 | COc1cc(NCC(=O)NCCCc2cccc(C3(C(=O)O[C@H]4CN5CCC4CC5)CCCCC3)c2)c(Cl)cc1CNC[C@H](O)c1ccc(O)c2[nH]c(=O)ccc12 [Example 30, (3R)-1-azabicyclo[2.2.2]oct-3-yl 1-{3-[3-({N-[2-chloro-4-({[(2R)-2-hydroxy-2-(8-hydroxy-2-oxo-1,2-dihydroquinolin-5-yl)ethyl]amino}methyl)-5-methoxyphenyl]glycyl}amino)propyl]phenyl}cyclohexanecarboxylate] | 1.5 nM | 13 nM
10 | COc1cc(NC(=O)CCCc2cccc(C3(C(=O)OCC45CCN(CC4)CC5)CCCCC3)c2)c(Cl)cc1CNC[C@H](O)c1ccc(O)c2[nH]c(=O)ccc12 [Example 18, 1-azabicyclo[2.2.2]oct-4-yl methyl 1-[3-(4-{[2-chloro-4-({[(2R)-2-hydroxy-2-(8-hydroxy-2-oxo-1,2-dihydroquinolin-5-yl)ethyl]amino}methyl)-5-methoxyphenyl]amino}-4-oxobutyl)phenyl]cyclohexanecarboxylate] | 0.14 nM | 2.3 nM
11 | O=C(NCCCCc1cccc(C2(C(=O)O[C@H]3CN4CCC3CC4)CCCCC2)c1)c1ccc(CNC[C@H](O)c2ccc(O)c3[nH]c(=O)ccc23)nc1 [Example 21, (3R)-1-azabicyclo[2.2.2]oct-3-yl 1-{3-[4-({[6-({[(2R)-2-hydroxy-2-(8-hydroxy-2-oxo-1,2-dihydroquinolin-5-yl)ethyl]amino}methyl)pyridin-3-yl]carbonyl}amino)butyl]phenyl}cyclohexanecarboxylate] | 0.6 nM | 34 nM
12 | COc1cc(NC(=O)CCCc2cccc(C3(C(=O)O[C@H]4CN5CCC4CC5)CCCCC3)c2)c(Cl)cc1CNC[C@H](O)c1ccc(O)c2[nH]c(=O)ccc12 [Example 2, (3R)-1-azabicyclo[2.2.2]oct-3-yl 1-[3-(4-{[2-chloro-4-({[(2R)-2-hydroxy-2-(8-hydroxy-2-oxo-1,2-dihydroquinolin-5-yl)ethyl]amino}methyl)-5-methoxyphenyl]amino}-4-oxobutyl)phenyl]cyclohexanecarboxylate] | 0.22 nM | 3 nM
13 | COc1cc(C(=O)NCCCc2cccc(C3(C(=O)O[C@H]4CN5CCC4CC5)CCCCC3)c2)c(Cl)cc1CNC[C@H](O)c1ccc(O)c2[nH]c(=O)ccc12 [Example 20, (3R)-1-azabicyclo[2.2.2]oct-3-yl 1-[3-(3-{[2-chloro-4-({[(2R)-2-hydroxy-2-(8-hydroxy-2-oxo-1,2-dihydroquinolin-5-yl)ethyl]amino}methyl)-5-methoxybenzoyl]amino}propyl)phenyl]cyclohexanecarboxylate] | 0.14 nM | 3.8 nM
14 | (3R)-1-azabicyclo[2.2.2]oct-3-yl 1-(3-{4-[{[2-chloro-4-({[2-hydroxy-2-(8-hydroxy-2-oxo-1,2-dihydroquinolin-5-yl)ethyl]amino}methyl)-5-methoxyphenoxy]acetyl}(methyl)amino]butyl}phenyl)cyclohexanecarboxylate [Example 26] | 0.53 nM | 3 nM
15 | O=C(CCCc1cccc(C2(C(=O)O[C@H]3CN4CCC3CC4)CCCCC2)c1)NCCCCCNC[C@H](O)c1ccc(O)c2[nH]c(=O)ccc12 [Example 7, (3R)-1-azabicyclo[2.2.2]oct-3-yl 1-(3-{4-[(5-{[(2R)-2-hydroxy-2-(8-hydroxy-2-oxo-1,2-dihydroquinolin-5-yl)ethyl]amino}pentyl)amino]-4-oxobutyl}phenyl)cyclo hexanecarboxylate] | 1.5 nM | 6.7 nM
16 | COc1cc(OCC(=O)OC2CCC(Cc3cccc(C4(C(=O)O[C@H]5CN6CCC5CC6)CCCCC4)c3)CC2)c(Cl)cc1CNC[C@H](O)c1ccc(O)c2[nH]c(=O)ccc12 (stereo partly drawn) [Example 14, (3R)-1-azabicyclo[2.2.2]oct-3-yl 1-(3-{[4-({[2-chloro-4-({[(2R)-2-hydroxy-2-(8-hydroxy-2-oxo-1,2-dihydroquinolin-5-yl)ethyl]amino}methyl)-5-methoxyphenoxy]acetyl}oxy)cyclohexyl]methyl}phenyl)cyclohexanecarboxylate] | 7.1 nM | 9 nM
